Reference: PubChem BioAssay (NCI)
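How tested: cells in 96-well plates exposed to compound for 48 hours at five concentrations. TGI denotes the concentration required for complete inhibition of growth.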

Assays:
Test in all cases: NCI tumour cell line growth inhibition, 48 h
[1] = test system: BT-549 breast
[2] = test system: HCT-116 colon
[3] = test system: HS 578T breast
[4] = test system: K-562 leukemia
[5] = test system: M14 melanoma
[6] = test system: MALME-3M melanoma
[7] = test system: MDA-MB-435
[8] = test system: MOLT-4 leukemia
[9] = test system: NCI-H226 lung
[10] = test system: OVCAR-3 ovarian
[11] = test system: OVCAR-5 ovarian
[12] = test system: PC-3 prostate
[13] = test system: SF-268 CNS
[14] = test system: SF-539 CNS
[15] = test system: SK-MEL-2 melanoma
[16] = test system: SK-MEL-5 melanoma
[17] = test system: SR leukemia
[18] = test system: T-47D breast
[19] = test system: TK-10 renal
[20] = test system: UACC-62 melanoma

Row | SMILES | TGI [1] | TGI [2] | TGI [3] | TGI [4] | TGI [5] | TGI [6] | TGI [7] | TGI [8] | TGI [9] | TGI [10] | TGI [11] | TGI [12] | TGI [13] | TGI [14] | TGI [15] | TGI [16] | TGI [17] | TGI [18] | TGI [19] | TGI [20]
1 | Cn1cc(-c2cnc(-c3cn(C)c4ccccc34)cn2)c2ccccc21 | > 84.7 µM | > 100 µM | 33.5 µM | > 52.5 µM | 27.7 µM | > 100 µM | 7.38 µM | > 100 µM | > 86.1 µM | > 42.4 µM | > 100 µM | > 100 µM | > 87.5 µM | 10.4 µM | > 71.2 µM | 25.3 µM | > 100 µM | > 100 µM | > 100 µM | 31.3 µM
2 | O=C(O)c1ccccc1CC1Cc2ccc3c(c2C1=O)CCC3 (centres undefined) | > 100 µM | > 100 µM | > 100 µM | > 100 µM | > 100 µM | > 100 µM | > 100 µM | > 100 µM | > 100 µM | > 100 µM | > 100 µM | > 100 µM | > 100 µM | > 100 µM | > 100 µM | > 100 µM | > 100 µM | > 100 µM | > 100 µM | > 100 µM
3 | Oc1ccc2oc3c(O)c4ccccc4cc3c2c1 | 15.3 µM | 4.16 µM | > 100 µM | 1.3 µM | 21.7 µM | 33.4 µM | 5.33 µM | 11.9 µM |  | 15.1 µM |  | > 100 µM | 21.5 µM | 3.91 µM | 93 µM | 7.5 µM | 5.52 µM | 55.4 µM | 45 µM | 1.67 µM
4 | CCOC(=O)C(NCc1ccc2c(c1)OCO2)(NC(=O)c1ccccc1)C(F)(F)F (centres undefined) | > 100 µM | > 100 µM | > 100 µM | > 100 µM | > 100 µM | > 100 µM | > 100 µM | 50.8 µM | > 100 µM | > 100 µM | > 100 µM | > 100 µM | > 100 µM | > 100 µM | > 100 µM | > 100 µM | > 100 µM | > 100 µM | > 100 µM | > 100 µM
5 | C=CCCCC1SC2=C(CC)CCCN2C1=O (centres undefined) | > 100 µM | > 100 µM | > 100 µM | > 100 µM | > 100 µM | > 100 µM | > 100 µM | > 100 µM | > 100 µM | > 100 µM | > 100 µM | > 100 µM | > 100 µM | > 100 µM | > 100 µM | > 100 µM | > 100 µM | > 100 µM | > 100 µM | > 100 µM
6 | CCOC(=O)[C@H](O)[C@@H](O)C(=O)NCc1ccc(C(=O)c2ccccc2)cc1 | > 100 µM | > 100 µM | > 100 µM | > 100 µM | > 100 µM | > 100 µM | > 100 µM | > 100 µM | > 100 µM | > 100 µM | > 100 µM | > 100 µM | > 100 µM | > 100 µM | > 100 µM | > 100 µM | > 100 µM | > 100 µM | > 100 µM | > 100 µM
7 | CSCCC(N)P(C)(=O)O (centres undefined) | > 100 µM | > 100 µM | > 100 µM | > 100 µM | > 100 µM | > 100 µM | > 100 µM | > 100 µM | > 100 µM | > 100 µM | > 100 µM | > 100 µM | > 100 µM | > 100 µM | > 100 µM | > 100 µM | > 100 µM | > 100 µM | > 100 µM | > 100 µM
8 | O=C(CC(C(=O)c1ccco1)c1cccs1)c1cccs1 (centres undefined) | > 100 µM | > 100 µM | > 100 µM |  | > 100 µM | > 100 µM | > 100 µM |  | > 100 µM | > 100 µM | > 100 µM | > 100 µM | > 100 µM | > 100 µM | > 100 µM | > 100 µM | > 100 µM | > 100 µM | > 100 µM | > 100 µM
9 | COc1ccc(N=C2C(=Nc3ccc(OC)cc3)N(S(=O)(=O)c3ccccc3)C(=S)N2c2ccccc2)cc1 | > 100 µM |  | > 100 µM | > 100 µM | > 100 µM | > 100 µM | > 100 µM | > 100 µM | > 100 µM | > 100 µM | > 100 µM | > 100 µM | > 100 µM | > 100 µM | > 100 µM | > 100 µM | > 100 µM | > 100 µM | > 100 µM | > 100 µM
10 | O=C(NNc1ccnc2cc(Cl)ccc12)/C(=C\c1ccccc1Cl)NC(=O)c1ccccc1 | 87.8 µM | > 100 µM | > 100 µM | > 100 µM | > 100 µM | > 100 µM | > 100 µM |  | 67.6 µM | 38.2 µM | > 100 µM | > 100 µM | 85.1 µM | 72.7 µM | 46.1 µM | 81.2 µM | > 100 µM | > 100 µM | > 100 µM | 70.9 µM
